Experimental data reported in PubChem BioAssay AID1259407 (Chemical Carcinogenesis Research Information System (CCRIS), 2018).
Active and inactive are the calls of the source. No rule for the calls is given here.

Test system: CCRIS mutagenicity, Ames/micronucleus/aberration tests
Test: CCRIS mutagenicity studies

O=C(O)c1ccccc1C(=O)O
mutagenic call (End Point: In vitro chromosomal aberrations, Test System: Chinese hamster ovary (CHO) cells, Metabolic Activation: None): inactive; negative
mutagenic call (End Point: In vitro chromosomal aberrations, Test System: Chinese hamster ovary (CHO) cells, Metabolic Activation: Rat, liver, S-9, Aroclor 1254, 10%): inactive; negative
mutagenic call (End Point: In vivo micronucleus, Test System: Bone marrow polychromatic erythrocytes, Species: Mouse, Strain/Sex: ICR/Male, Route: Intraperitoneal): inactive; negative
mutagenic call (Test System: AMES SALMONELLA TYPHIMURIUM, Strain/Indicator: TA97, Metabolic Activation: HAMSTER, LIVER, S-9, AROCLOR 1254, 10%, Method: PREINCUBATION): inactive; negative
mutagenic call (Test System: AMES SALMONELLA TYPHIMURIUM, Strain/Indicator: TA97, Metabolic Activation: HAMSTER, LIVER, S-9, AROCLOR 1254, 30%, Method: PREINCUBATION): inactive; negative
mutagenic call (Test System: AMES SALMONELLA TYPHIMURIUM, Strain/Indicator: TA97, Metabolic Activation: NONE, Method: PREINCUBATION): inactive; negative
mutagenic call (Test System: AMES SALMONELLA TYPHIMURIUM, Strain/Indicator: TA97, Metabolic Activation: RAT, LIVER, S-9, AROCLOR 1254, 10%, Method: PREINCUBATION): inactive; negative
mutagenic call (Test System: AMES SALMONELLA TYPHIMURIUM, Strain/Indicator: TA97, Metabolic Activation: RAT, LIVER, S-9, AROCLOR 1254, 30%, Method: PREINCUBATION): inactive; negative
mutagenic call (Test System: AMES SALMONELLA TYPHIMURIUM, Strain/Indicator: TA97, Metabolic Activation: RAT, LIVER, S-9, PHENOBARBITAL AND 5,6-BENZOFLAVONE, Method: PREINCUBATION): inactive; negative
mutagenic call (Test System: AMES SALMONELLA TYPHIMURIUM, Strain/Indicator: TA98, Metabolic Activation: HAMSTER, LIVER, S-9, AROCLOR 1254, 10%, Method: PREINCUBATION): inactive; negative
mutagenic call (Test System: AMES SALMONELLA TYPHIMURIUM, Strain/Indicator: TA98, Metabolic Activation: HAMSTER, LIVER, S-9, AROCLOR 1254,(30%, Method: PREINCUBATION): inactive; negative
mutagenic call (Test System: AMES SALMONELLA TYPHIMURIUM, Strain/Indicator: TA98, Metabolic Activation: NONE, Method: PREINCUBATION): inactive; negative
mutagenic call (Test System: AMES SALMONELLA TYPHIMURIUM, Strain/Indicator: TA98, Metabolic Activation: RAT, LIVER, S-9, AROCLOR 1254, 10%, Method: PREINCUBATION): inactive; negative
mutagenic call (Test System: AMES SALMONELLA TYPHIMURIUM, Strain/Indicator: TA98, Metabolic Activation: RAT, LIVER, S-9, AROCLOR 1254, 30%, Method: PREINCUBATION): inactive; negative
mutagenic call (Test System: AMES SALMONELLA TYPHIMURIUM, Strain/Indicator: TA98, Metabolic Activation: RAT, LIVER, S-9, PHENOBARBITAL AND 5,6-BENZOFLAVONE, Method: PREINCUBATION): inactive; negative
mutagenic call (Test System: AMES SALMONELLA TYPHIMURIUM, Strain/Indicator: TA100, Metabolic Activation: HAMSTER, LIVER, S-9, AROCLOR 1254, 10%, Method: PREINCUBATION): inactive; negative
mutagenic call (Test System: AMES SALMONELLA TYPHIMURIUM, Strain/Indicator: TA100, Metabolic Activation: HAMSTER, LIVER, S-9, AROCLOR 1254, 30%, Method: PREINCUBATION): inactive; negative
mutagenic call (Test System: AMES SALMONELLA TYPHIMURIUM, Strain/Indicator: TA100, Metabolic Activation: NONE, Method: PREINCUBATION): inactive; negative
mutagenic call (Test System: AMES SALMONELLA TYPHIMURIUM, Strain/Indicator: TA100, Metabolic Activation: RAT, LIVER, S-9, AROCLOR 1254, 10%, Method: PREINCUBATION): inactive; negative
mutagenic call (Test System: AMES SALMONELLA TYPHIMURIUM, Strain/Indicator: TA100, Metabolic Activation: RAT, LIVER, S-9, AROCLOR 1254, 30%, Method: PREINCUBATION): inactive; negative
mutagenic call (Test System: AMES SALMONELLA TYPHIMURIUM, Strain/Indicator: TA100, Metabolic Activation: RAT, LIVER, S-9, PHENOBARBITAL AND 5,6-BENZOFLAVONE, Method: PREINCUBATION): inactive; negative
mutagenic call (Test System: AMES SALMONELLA TYPHIMURIUM, Strain/Indicator: TA102, Metabolic Activation: NONE, Method: PREINCUBATION): inactive; negative
mutagenic call (Test System: AMES SALMONELLA TYPHIMURIUM, Strain/Indicator: TA102, Metabolic Activation: RAT, LIVER, S-9, PHENOBARBITAL AND 5,6-BENZOFLAVONE, Method: PREINCUBATION): inactive; negative
mutagenic call (Test System: AMES SALMONELLA TYPHIMURIUM, Strain/Indicator: TA104, Metabolic Activation: NONE, Method: PREINCUBATION): inactive; negative
mutagenic call (Test System: AMES SALMONELLA TYPHIMURIUM, Strain/Indicator: TA104, Metabolic Activation: RAT, LIVER, S-9, PHENOBARBITAL AND 5,6-BENZOFLAVONE, Method: PREINCUBATION): inactive; negative
mutagenic call (Test System: AMES SALMONELLA TYPHIMURIUM, Strain/Indicator: TA1535, Metabolic Activation: HAMSTER, LIVER, S-9, AROCLOR 1254, 10%, Method: PREINCUBATION): inactive; negative
mutagenic call (Test System: AMES SALMONELLA TYPHIMURIUM, Strain/Indicator: TA1535, Metabolic Activation: HAMSTER, LIVER, S-9, AROCLOR 1254, 30%, Method: PREINCUBATION): inactive; negative
mutagenic call (Test System: AMES SALMONELLA TYPHIMURIUM, Strain/Indicator: TA1535, Metabolic Activation: NONE, Method: PREINCUBATION): inactive; negative
mutagenic call (Test System: AMES SALMONELLA TYPHIMURIUM, Strain/Indicator: TA1535, Metabolic Activation: RAT, LIVER, S-9, AROCLOR 1254 (10%), Method: PREINCUBATION): inactive; negative
mutagenic call (Test System: AMES SALMONELLA TYPHIMURIUM, Strain/Indicator: TA1535, Metabolic Activation: RAT, LIVER, S-9, AROCLOR 1254, 30%, Method: PREINCUBATION): inactive; negative
mutagenic call (Test System: Ames Salmonella typhimurium, Strain/Indicator: TA98, Metabolic Activation: None, Method: Preincubation): inactive; negative
mutagenic call (Test System: Ames Salmonella typhimurium, Strain/Indicator: TA98, Metabolic Activation: Rat, Liver, S-9, Aroclor 1254, Method: Preincubation): inactive; negative
mutagenic call (Test System: Ames Salmonella typhimurium, Strain/Indicator: TA100, Metabolic Activation: None, Method: Preincubation): inactive; negative
mutagenic call (Test System: Ames Salmonella typhimurium, Strain/Indicator: TA100, Metabolic Activation: Rat, liver, S-9, Aroclor 1254, Method: Preincubation): inactive; negative
mutagenic call (Test System: Ames Salmonella typhimurium, Strain/Indicator: TA102, Metabolic Activation: None, Method: Preincubation): inactive; negative
mutagenic call (Test System: Ames Salmonella typhimurium, Strain/Indicator: TA102, Metabolic Activation: Rat, liver, S-9, Aroclor 1254, Method: Preincubation): inactive; negative
mutagenic call (Test System: Ames Salmonella typhimurium, Strain/Indicator: TA1535, Metabolic Activation: None, Method: Preincubation): inactive; negative
mutagenic call (Test System: Ames Salmonella typhimurium, Strain/Indicator: TA1535, Metabolic Activation: Rat, liver, S-9, Aroclor 1254, Method: Preincubation): inactive; negative
mutagenic call (Test System: Ames Salmonella typhimurium, Strain/Indicator: TA1537, Metabolic Activation: None, Method: Preincubation): inactive; negative
mutagenic call (Test System: Ames Salmonella typhimurium, Strain/Indicator: TA1537, Metabolic Activation: Rat, liver, S-9, Aroclor 1254, Method: Preincubation): inactive; negative

N=NCCCO
mutagenic call (Test System: AMES SALMONELLA TYPHIMURIUM, Strain/Indicator: TA1535, Metabolic Activation: NONE, Method: STANDARD PLATE): active; positive
mutagenic call (Test System: E. COLI, Strain/Indicator: WP2, Metabolic Activation: NONE, Method: STANDARD PLATE): active; positive
mutagenic call (Test System: E. COLI, Strain/Indicator: WP2 UVRA, Metabolic Activation: NONE, Method: STANDARD PLATE): active; positive

COc1ccc(CN2C3c4ccccc4-c4ccccc4C32)cc1 (centres undefined)
mutagenic call (Test System: AMES SALMONELLA TYPHIMURIUM, Strain/Indicator: TA100, Metabolic Activation: NONE, Method: STANDARD PLATE): active; positive
